Assay results reported in patent publication US20250249056A1, “CANCER THERAPIES COMPRISING A NUCLEAR EXPORT INHIBITOR AND AN ONCOLYTIC VIRUS” (priority 2022, published 2025).

System: HT29 xenograft tumors
Assay: HT29 xenograft tumor model in NSG mice
Assay type: in vivo
Method: To test the ability of selinexor to enhance MYXV replication in vivo, a xenograft tumor model was established in immunodeficient NSG mice. Human Colo205 (FIG. 7) and HT29 (FIG. 8) cells were injected subcutaneously on both sides of the flank to generate tumors (FIG. 7A). After the tumors size reached between 100-200 mm^3 (2-3 weeks), mice were separated into treatment groups to have approximately equal average tumor sizes. Animals (n=5) were treated with PBS (oral and IT right tumor), selinexor (oral, 15 mg/kg), vMyx-Fluc (wild-type MYXV expressing Firefly luciferase and TdTomato; IT left tumor, 1×10^7 FFU), or selinexor (oral) and vMyx-Fluc (IT left tumor). After 48 hours post-treatment mice were imaged using an IVIS system for luciferase expression. […] Subsequently, mice received 2nd and 3rd doses of selinexor and a second IT injection of MYXV in the same tumor. […] Additionally, tumor burden was measured on both flanks during the course of treatment (FIG. 7F, FIG. 7G, FIG. 8E, and FIG. 8F).
Animal Studies: Male and female NSG mice were purchased from Jackson laboratory at 6-8 weeks of age. Animals were housed under sterile conditions. The animals were acclimatized for at least seven days before tumor implantation or any experimental procedures. Cells (1×10^6/mouse in 100 μL PBS) were subcutaneously injected into the flanks of NSG mice. When the average tumor volumes reached 50-200 mm^3, the mice were randomized into different treatment groups of five or six animals such that each treatment group had approximately the same average tumor volume. Tumor volume was measured two or three times per week as follows: volume=(length×width^2)/2. When the tumor volume reached 1.5-2 cm^3 animals were euthanized and tumors were collected for histology or processed for virus titration. To detect MYXV replication in the tumor bed luciferin was injected via IP delivery and bioluminescence images taken (Xenogen IVIS 2000).

O=C(/C=C\n1cnc(-c2cc(C(F)(F)F)cc(C(F)(F)F)c2)n1)NNc1cnccn1 [selinexor]
luciferase expression (IVIS) vs virus alone (48 hours after first vMyx-Fluc IT injection, selinexor oral 15 mg/kg): significantly higher levels of luciferase | luciferase signal (IVIS) vs virus alone (after second treatment): significantly enhanced level of luciferase signal | tumor burden compared to PBS or MYXV-only (both flanks, selinexor oral 15 mg/kg, vMyx-Fluc IT 1×10^7 FFU): significantly reduced tumor burden
